Laboratory results published in US20030190322A1, “Immunostimulating properties of a fragment of tgf-beta” (priority 2000, published 2003).
No end group written: not given here.

Experiments:
parvovirus peptide [1] = experiment: ELISA antibody titre to parvovirus peptide in rabbits, TGF-29 dose experiment with Titermax adjuvant (Example 3); type: in vivo; settings: group with highest dose TGF-29 (20 ug) plus 100 μg parvovirus peptide and Titermax adjuvant (preparation Iris); one rabbit, bleeding T3, 6 weeks after first immunisation
Protocol: Both preparations were subcutaneously injected into 2 groups of rabbits. Each injected dose was 0.1 mL and the preparations for a resulting volume between 0.4 and 0.5 mL was made as follows:
Each injected dose of 0.1 mL therefore contains approximate 4 ug TGF-29 and 100 ug parvovirus peptide.
Into the same vial 154 microliter H2O was added and the combined fractions subsequently mixed by stirring a few seconds and then transferred in drops, while stirring, into a small 1.8 mL plast vial preloaded with 250 microliter Titermax adjuvant. The resulting volume of the water-in-oil emulsion volume was a little more than 0.4 mL. Each injected dose of 0.1 mL therefore contains approximate 20 μg TGF-29 and 100 μg parvovirus peptide.
The rabbits were then immunised according to the normal standard immunisation procedure for antibody production in rabbits at a legal laboratory animal facility.
Before immunisation, a pre-immunisation serum sample (To) of each rabbit was collected. […]
The serum samples were analysed on an ELISA plate according to standard laboratory operations: Coating the plate bottom with parvo virus peptide derivative overnight, washings, incubation with serial dilutions of all serum samples, washings, incubation with HRP-Goat anti Rabbit 1 g, washings, incubation with substrate, stop reaction with acid, and reading of the plate.

parvovirus peptide [2] = experiment: ELISA antibody titre to parvovirus peptide in rabbits immunised with Parv or Parv+TGF-29 (Example 1); type: in vivo; settings: subcutaneous, 3 immunisations at 2 week intervals, freunds incomplete adjuvant
Protocol: Both preparations were subcutaneously injected into 2 groups of rabbits. The con-tent of each injected dose of 0.2 mL were;
50 microgram parvovirus peptide was dissolved in 0.05 mL PBS and subsequently mixed with 0.05 mL PBS by stirring. The combined fractions were then mixed with 0.1 mL freunds incomplete adjuvant by stirring.
50 microgram parvovirus peptide was dissolved in 0.05 mL PBS and subsequently mixed with 100 microgram of a crude fraction comprising TGF-29 dissolved in 0.05 mL PBS, and then the combined fractions were mixed with 0.1 mL freunds incomplete adjuvant by stirring,
The rabbits were immunised by subcuteous injection according to normal standard immunisation procedures for antibody production in rabbits at a legal laboratory animal facility.
Before immunisation, a pre-immunisation serum sample (T0) of each rabbit were collected. Two weeks after the last of 3 immunisations (given at 2 week intervals) an immune serum sample (T1) was collected from each rabbit. […]
The serum samples were analysed on an ELISA plate according to standard laboratory operations. Coating the plate bottom with parvo virus peptide derivative overnight, washings, incubation with serial dilutions of all serum samples, washings, incubation with HRP-Goat anti Rabbit 1 g, washings, incubation with substrate, stop reaction with acid, and reading of the plate.

Row | Substance | titer to the parvovirus peptide compared with T0 serum (highest of all bleedings) (parvovirus peptide [1]) | antibody titre to the parvovirus peptide, immune serum samples compared with T0 sera (parvovirus peptide [2])
1 | ALDAAYCFRNVQDNCCLRPLYIDFKRDLG (cysteine pairing not given here) [TGF-29] | more than three 5-fold serial antiserum dilutions better than the corresponding T0 serum | 
2 | acetyl-CDGAVQPDGGQPAVRNER-amide (Ac-CDGAVQPDGGQPAVRNER-NH2) [Parv] |  | Non-detectable or less antibody titre to the parvovirus peptide than in the corresponding to sera
